# How the values were obtained:
# [1] = cited from earlier work
# [2] = system: Chick Chorioallantoic Membrane (CAM) vasculature; assay: Chick chorioallantoic membrane (CAM) angiogenesis assay; conditions: for INHIBITION/N: 48 hours exposure; for effect on angiogenesis: 48 hours after application to the CAM
# [3] = within 48 hours, depending on concentration
Compound,solubility in water [1],INHIBITION/N ([2]; 1 μg in methylcellulose (10 μl) disk on CAM),INHIBITION/N ([2]; 5 μg in methylcellulose (10 μl) disk on CAM),INHIBITION/N ([2]; 10 μg in methylcellulose (10 μl) disk on CAM),effect on angiogenesis [2],"maximal avascular zone diameter [2, 3] [mm]","maximal avascular zone on the avascular gradient scale [2, 3]"
O=C1c2c(O)ccc(O)c2C(=O)c2c(NCCNCCO)ccc(NCCNCCO)c21 [mitoxantrone],insoluble in water,18/24,21/24,18/22,angiogenesis was inhibited,6,3
CC(=O)O[C@H]1C(=O)[C@@]2(C)[C@H]([C@H](OC(=O)c3ccccc3)[C@]3(O)C[C@H](OC(=O)[C@H](O)[C@@H](NC(=O)c4ccccc4)c4ccccc4)C(C)=C1C3(C)C)[C@]1(OC(C)=O)CO[C@@H]1C[C@@H]2O [paclitaxel],–,–,–,–,angiogenesis was inhibited,–,3
